Experimental data taken from patent publication US5516783A, “4-(1H-2-methylimidazo[4,5-c]pyridinylmethyl)phenylsulphonamide derivatives as antagonist of PAF” (British Biotech Pharmaceuticals Limited, priority 1992, dated 1996).

Target: T1, platelet activating factor (PAF) receptor (human platelet plasma membrane) (Homo sapiens, UniProt P25105)
T1 construct: Platelet concentrates were obtained from a hospital blood bank; from tissue; host or cells: human platelets (hospital blood bank concentrates), lysed plasma membrane preparation
Assay: inhibition of [^3 H]-PAF receptor binding to human platelet plasma membrane
Conditions: [^3 H]-PAF 0.5 nM, 0° C., 1 hour, pH 7.0
Procedure: The inhibition of [^3 H]-PAF binding to human platelet plasma membrane by compounds of general formula I was determined by isotopic labelling and filtration techniques. Platelet concentrates were obtained from a hospital blood bank. These platelet concentrates (500-2500 ml.) were centrifuged at 800 rpm for 10 minutes in a SORVALL RC3B centrifuge to remove the red blood cells present. (The word SORVALL is a trade mark.) The supernatant was subsequently centrifuged at 3,000 rpm in a SORVALL RC3B centrifuge to pellet the platelets present. The platelet rich pellets were resuspended in a minimum volume of buffer (150 mM NaCl, 10 mM Tris, 2 mM EDTA, pH 7.5) and layered onto Ficoll-Paque gradients, 9 ml platelet concentrate to 2 ml Ficoll, and centrifuged at 1,900 rpm for 15 minutes in a SORVALL RT6000 centrifuge. This step removes the residual red blood cells and other nonspecific material such as lymphocytes from the preparation. The platelets which form a band between the plasma and the Ficoll were removed, resuspended in the above buffer and centrifuged at 3,000 rpm for 10 minutes in a SORVALL RT6000 centrifuge. The pelleted platelets were resuspended in buffer (10 mM Tris, 5 mM MgCl2, 2 mM EDTA, pH 7.0), snap freezed in liquid N2 and allowed to thaw slowly at room temperature in order to lyse the platelets. The latter step was repeated at least 3 times to ensure proper lysis. The lysed platelets were centrifuged at 3,000 rpm for 10 minutes in a SORVALL RT6000 centrifuge and resuspended in buffer. The latter step was repeated twice in order to remove any cytoplasmic proteins which may hydrolyse the platelet activating factor (PAF) receptor. The prepared platelet membranes may be stored at -70° C. After thawing the prepared membranes were centrifuged in a SORVALL RT6000 at 3,000 rpm for 10 minutes and resuspended in assay buffer.
The assay was conducted by preparing a series of Tris-buffered solutions of the selected antagonist of predetermined concentrations. Each of these solutions contained [^3 H]-PAF (0.5 nM; 1-O-[^3 H]octadecyl-2-acetyl-sn-glycero-3-phosphoryl choline with a specific activity of 132 Ci/mmol), unlabelled PAF (1000 nM), a known amount of the test antagonist, and a sufficient amount of Tris-buffer solution (10 mM Tris, 5 mM MgCl2, pH 7.0, 0.25% BSA) to make the final volume 1 ml. Incubation was initiated by the addition of 100 μg of the isolated membrane fraction to each of the above solutions at 0° C. Two control samples, one (C1 ) which contained all the ingredients described above except the antagonist and the other (C2) contains C1 plus a 1000-fold excess of unlabelled PAF, were also prepared and incubated simultaneously with the test samples.
After 1 hour incubation, each solution was filtered rapidly under vacuo through a WHATMAN GF/C glass fibre filter in order to separate unbound PAF from bound PAF. (The word WHATMAN is a trade mark.) The residue in each case was rapidly washed 4 times with 5 ml cold (4° C.) Tris-buffer solution. Each washed residue was dried under vacuum on a sampling manifold and placed into vials containing 20 ml of OPTIPHASE MP scintillation fluid and the radioactivity counted in a liquid scintillation counter. (The word OPTIPHASE is a trade mark.) Defining the counts for total binding with antagonist from a test sample as "TBA"; the counts for total binding from the control sample C1 as "TB"; and the counts for nonspecific binding from the control sample C2 as "NSB", the percent inhibition of each test antagonist can be determined by the following equation:
Inhibition=[(TB-TBA)/SB]×100
where the specific binding SB=TB-NSB
Table 1 lists results from this assay for inhibition of [^3 H]-PAF receptor binding for illustrative examples of the compounds of this invention. […]

T1 sequence (P25105 whole entry): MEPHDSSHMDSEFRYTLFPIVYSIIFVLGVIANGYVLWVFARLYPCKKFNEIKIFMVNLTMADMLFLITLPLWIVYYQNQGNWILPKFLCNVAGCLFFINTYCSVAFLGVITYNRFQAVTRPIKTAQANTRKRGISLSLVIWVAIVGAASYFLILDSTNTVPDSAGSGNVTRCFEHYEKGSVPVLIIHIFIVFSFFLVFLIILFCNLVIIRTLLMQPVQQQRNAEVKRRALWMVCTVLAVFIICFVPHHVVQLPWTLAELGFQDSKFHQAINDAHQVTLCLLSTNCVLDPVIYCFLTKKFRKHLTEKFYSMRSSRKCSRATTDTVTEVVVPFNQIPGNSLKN

Structure (SMILES) | IC50 [nM]
Cc1nc2cnccc2n1Cc1ccc(S(=O)(=O)N(C)[C@H](CO)CC(C)C)cc1 [Example 1, N-Methyl-N-4-(1H-2-methylimidazo[4,5-c]pyridinylmethyl)phenylsulphonyl-L-leucinol] | 7
CCCCCCCCCCCCCCCCCC(=O)OC[C@H](CC(C)C)N(C)S(=O)(=O)c1ccc(Cn2c(C)nc3cnccc32)cc1 [Example 44, O-Octadecanoyl-N-methyl-N-4-(1H-2-methylimidazo[4,5-c]pyridinylmethyl)phenylsulphonyl-L-leucinol] | 1
CCC(=O)OC[C@H](CC(C)C)N(C)S(=O)(=O)c1ccc(Cn2c(C)nc3cnccc32)cc1 [Example 45, O-Propanoyl-N-methyl-N-4-(1H-2-methylimidazo[4,5-c]pyridinylmethyl)phenylsulphonyl-L-leucinol] | 0.5
CCOC(=O)C(=O)OC[C@H](CC(C)C)N(C)S(=O)(=O)c1ccc(Cn2c(C)nc3cnccc32)cc1 [Example 47, O-Ethyloxaloyl-N-methyl-N-4-(1H-2-methylimidazo[4,5-c]pyridinylmethyl)phenylsulphonyl-L-leucinol] | 2
CC(=O)Oc1ccccc1C(=O)OC[C@H](CC(C)C)N(C)S(=O)(=O)c1ccc(Cn2c(C)nc3cnccc32)cc1 [Example 49, O-2-Acetoxybenzoyl-N-methyl-N-4-(1H-2-methylimidazo[4,5-c]pyridinylmethyl)phenylsulphonyl-L-leucinol] | 2
CC1=C(/C=C/C(C)=C/C=C/C(C)=C/C(=O)OC[C@H](CC(C)C)N(C)S(=O)(=O)c2ccc(Cn3c(C)nc4cnccc43)cc2)C(C)(C)CCC1 [Example 79, O-Retinoyl-N-methyl-N-4-(1H-2-methylimidazo[4,5-c]pyridinylmethyl)phenylsulphonyl-L-leucinol] | 4
CCCCCCCCCCCCCCCCCCNC(=O)OC[C@H](CC(C)C)N(C)S(=O)(=O)c1ccc(Cn2c(C)nc3cnccc32)cc1 [Example 109, O-Octadecylaminocarbonyl-N-methyl-N-4-(1H-2-methylimidazo[4,5-c]pyridinylmethyl)phenylsulphonyl-L-leucinol] | 3
Cc1noc([C@H](CC(C)C)N(C)S(=O)(=O)c2ccc(Cn3c(C)nc4cnccc43)cc2)n1 [Example 155, N-Methyl-N-4-(1H-2-methylimidazo[4,5-c]pyridinylmethyl)phenylsulphonyl-1-(3-methyl-1,2,4-oxadiazol-5-yl)-3-methylbutylamine] | 2

Test system: PAF-induced hypotension
Assay: reversal of hypotension caused by an infusion of PAF in rats
Format: in vivo, Male Sprague-Dawley rats
Conditions: iv; i.v. bolus; PAF 100 ng/kg/min infused i.v.; anaesthetised rat; read-out: inhibition of PAF-induced hypotension in the rat, ED50 (dose to cause a 50% reversal of the hypotensive PAF response)
Procedure: Male Sprague-Dawley rats (300-350 g) were anaesthetised with a mixture of sodium pentobarbitone, 22.5 mg/kg and thiopental 62.5 mg/kg. Through a midline incision in the neck, the trachea was cannulated and the animals breathed spontaneously. A carotid artery was cannulated for the measurement of blood pressure and this signal was used to trigger a rate meter to measure heart rate. Both jugular veins were cannulated: one for the infusion of PAF and the other for the bolus administration of test compounds.
PAF, 100 ng/kg/min was infused i.v. until a sustained fall in mean blood pressure of 50 mmHg was achieved. […] The peak of this reversal was measured and the dose to cause a 50% reversal of the hypotensive PAF response (ED50) calculated by straight line interpolation and the results are presented in Table 2.

Structure (SMILES) | ED50 [µg/kg]
CN(C(=O)c1ccc(Cn2cnc3cnccc32)cc1)C1CCCCC1 [Comparative Example, N-Cyclohexyl-N-methyl-4-(1H-imidazo[4,5-c]pyridinylmethyl)benzamide, reference compound] | 150
CCCCCCCCCCCCCCCCCC(=O)OC[C@H](CC(C)C)N(C)S(=O)(=O)c1ccc(Cn2c(C)nc3cnccc32)cc1 [Example 44, O-Octadecanoyl-N-methyl-N-4-(1H-2-methylimidazo[4,5-c]pyridinylmethyl)phenylsulphonyl-L-leucinol] | 4.6
CC(=O)Oc1ccccc1C(=O)OC[C@H](CC(C)C)N(C)S(=O)(=O)c1ccc(Cn2c(C)nc3cnccc32)cc1 [Example 49, O-2-Acetoxybenzoyl-N-methyl-N-4-(1H-2-methylimidazo[4,5-c]pyridinylmethyl)phenylsulphonyl-L-leucinol] | 2.2
COc1ccc(SCC(=O)OC[C@H](CC(C)C)N(C)S(=O)(=O)c2ccc(Cn3c(C)nc4cnccc43)cc2)cc1OC [Example 78, O-2-(3,4-Dimethoxyphenylmercapto)ethanoyl-N-methyl-N-4-(1H-2-methylimidazo[4,5-c]pyridinylmethyl)phenylsulphonyl-L-leucinol] | 5.8
Cc1nc2cnccc2n1Cc1ccc(S(=O)(=O)N(C)[C@H](COC(=O)NCc2ccccn2)CC(C)C)cc1 [Example 108, O-Pyridin-2-ylmethylaminocarbonyl-N-methyl-N-4-(1H-2-methylimidazo[4,5-c]pyridinylmethyl)phenylsulphonyl-L-leucinol] | 6.6
CCc1noc([C@H](CC(C)C)N(C)S(=O)(=O)c2ccc(Cn3c(C)nc4cnccc43)cc2)n1 [Example 156, N-Methyl-N-4-(1H-2-methylimidazo[4,5-c]pyridinylmethyl)phenylsulphonyl-1-(3-ethyl-1,2,4-oxadiazol-5-yl)-3-methylbutylamine] | 0.6

Test system: platelet activating factor
Assay: antagonism of platelet activating factor (statement in words)
Conditions: not given

Structure (SMILES) | antagonism of platelet activating factor (in words)
Cc1nc2ccncc2n1Cc1ccc(S(=O)(=O)N(C)Cc2cccs2)cc1 [N-methyl-N-4-(3 H-2-methylimidazo[4,5-c]pyridinylmethyl)phenylsulphonyl-2-thienylmethylamine] | are antagonists of platelet activating factor
Cc1nc2ccn(Cc3ccc(S(=O)(=O)N(C)Cc4cccs4)cc3)cc-2n1 [N-methyl-N-4-(5H-2-methylimidazo[4,5-c]pyridinylmethyl)phenylsulphonyl-2-thienylmethylamine] | are antagonists of platelet activating factor
